The assay addresses T1, Human galectin-3 (Gal-3) (Homo sapiens, UniProt P17931).
T1 construct: gene LGALS3; mainly monomeric in solution
The assay is described as follows: isothermal titration calorimetry. The format is binding. The note with it: 20 mM phosphate pH 7.2, 150 mM NaCl, 25 °C; equal and independent sites model, n = 1.00 buffer and model; tetravalent ligand, n = 0.19 ± 0.05, cross-linking; read-out: K.10^-4 (M^-1). The source says: isothermal titration calorimetry on Human galectin-3 (Gal-3)
(In general: In ITC the heat of successive injections is recorded.)

T1 sequence (P17931 2-250): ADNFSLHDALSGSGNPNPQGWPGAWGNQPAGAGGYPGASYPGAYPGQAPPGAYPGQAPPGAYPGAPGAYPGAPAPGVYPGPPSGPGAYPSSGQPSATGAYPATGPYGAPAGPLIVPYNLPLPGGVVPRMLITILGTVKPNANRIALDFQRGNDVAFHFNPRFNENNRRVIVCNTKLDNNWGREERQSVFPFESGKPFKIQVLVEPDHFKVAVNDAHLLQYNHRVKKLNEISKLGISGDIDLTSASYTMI

For “G0-PAMAM-(COCH2CH2TACH2FcCH2TACH2Lac)4 [compound 12]”, the Kd was determined as 3.14 µM.

These data come from paper PMC7074905, “Multivalent Lactose–Ferrocene Conjugates Based on Poly (Amido Amine) Dendrimers and Gold Nanoparticles as Electrochemical Probes for Sensing Galectin-3” (Nanomaterials, 2020).
